Patent US8420670B2 (Abbott Laboratories, priority 2007, dated 2013)

molecular target: T1, human GlyT1c transporter (Homo sapiens, UniProt P48067); assay: [3H]-(R)-NPTS radioligand binding assay using recombinant hGlyT1 expressing cell membranes; conditions: 0.5 nM [3H]-(R)-NPTS, apparent Ki via Cheng-Prusoff, read-out: [3H]-(R)-NPTS bindung Ki
T1 construct: expressed in transfected cells; host or cells: recombinant hGlyT1-expressing cells
T1 sequence (P48067 1-706): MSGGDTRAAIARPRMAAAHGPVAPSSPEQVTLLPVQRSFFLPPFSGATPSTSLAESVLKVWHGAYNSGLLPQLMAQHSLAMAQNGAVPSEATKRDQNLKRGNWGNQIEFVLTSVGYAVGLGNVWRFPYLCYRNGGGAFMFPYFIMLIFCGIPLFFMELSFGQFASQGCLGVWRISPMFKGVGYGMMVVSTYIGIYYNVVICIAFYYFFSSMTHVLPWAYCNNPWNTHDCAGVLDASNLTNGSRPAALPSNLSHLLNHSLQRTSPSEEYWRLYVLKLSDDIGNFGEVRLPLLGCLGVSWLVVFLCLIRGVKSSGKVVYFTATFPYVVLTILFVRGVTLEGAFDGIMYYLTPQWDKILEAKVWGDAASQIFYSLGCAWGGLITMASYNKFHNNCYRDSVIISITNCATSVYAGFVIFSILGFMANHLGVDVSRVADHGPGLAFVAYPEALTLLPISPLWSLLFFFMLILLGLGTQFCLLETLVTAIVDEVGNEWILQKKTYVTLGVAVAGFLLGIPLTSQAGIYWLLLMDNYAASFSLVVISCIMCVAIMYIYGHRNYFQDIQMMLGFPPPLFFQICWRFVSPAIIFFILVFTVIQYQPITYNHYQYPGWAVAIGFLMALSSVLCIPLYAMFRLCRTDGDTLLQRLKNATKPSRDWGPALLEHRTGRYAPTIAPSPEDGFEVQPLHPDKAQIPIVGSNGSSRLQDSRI
Procedure, shortened: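 Membranes expressing human GlyT1c (50 μg/ml protein) were incubated with 0.5 nM [3H]-(R)-NPTS in pH 7.5 HEPES/NaCl buffer with 1% DMSO for 1 h at room temperature, then filtered. Non-specific binding was defined with 10 μM Org24598, and IC50 values were converted to apparent Ki by Cheng-Prusoff.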

| Ki | Structure (SMILES) |
| --- | --- |
| ≤ 1000 nM | COc1cccc2c(NCc3ccc(C(F)(F)F)c(Cl)c3)cc(C)nc12 [Example 80, (3-Chloro-4-trifluoromethylbenzyl)-(8-methoxy-2-methylquinolin-4-yl)-amine] |
| ≤ 1000 nM | CSc1cccc2c(NCc3ccc(Cl)cc3)cc(C)nc12 [Example 83, (4-Chlorobenzyl)-(2-methyl-8-methylsulfanylquinolin-4-yl)-amine] |
| ≤ 1000 nM | COc1cccc2c(NCc3ccc(Cl)cc3)cc(C)nc12 [Example 84, (4-Chlorobenzyl)-(2-methyl-8-methoxyquinolin-4-yl)amine] |
| ≤ 1000 nM | CSc1cccc2c(NCc3ccc(F)c(F)c3)cc(C)nc12 [Example 86, (3,4-Difluorobenzyl)-(2-methyl-8-methylsulfanylquinolin-4-yl)-amine] |
| ≤ 100 nM | CSc1cccc2c(NCc3ccc(Cl)c(Cl)c3)cc(C)nc12 [Example 88, (3,4-Dichlorobenzyl)-(2-methyl-8-methylsulfanylquinolin-4-yl)-amine] |
| ≤ 100 nM | Cc1cc(NCc2ccc(Cl)c(Cl)c2)c2ccccc2n1 [Example 89, (3,4-Dichlorobenzyl)-(2-methylquinolin-4-yl)-amine] |
| ≤ 10000 nM | Cc1cc(NCc2cccc(Cl)c2Cl)c2ccccc2n1 [Example 91, (2,3-Dichloro-benzyl)-(2-methylquinolin-4-yl)-amine] |
| ≤ 1000 nM | Cc1cc(NCc2ccc(Cl)c(Cl)c2)c2cccc([S+](C)[O-])c2n1 (stereo not drawn) [Example 92, (3,4-Dichlorobenzyl)-(8-methanesulfinyl-2-methylquinolin-4-yl)-amine] |
| ≤ 10000 nM | CN(C)c1cc(NCc2ccccc2)c2ccccc2n1 [Example 94, N*4*-Benzyl-N*2*,N*2*-dimethylquinoline-2,4-diamine] |

Further lines, the molecule ahead of its results:

| Structure (SMILES) | Ki |
| --- | --- |
| COc1cccc2c(NC(CNC(C)C)c3ccccc3)cc(C)nc12 (stereo not drawn) [Example 79, N*2*-Isopropyl-N*1*-(8-methoxy-2-methylquinolin-4-yl)-1-phenylethane-1,2-diamine] | ≤ 10000 nM |
| Cc1cc(NCc2ccc(Cl)c(Cl)c2)c2cccc(Cl)c2n1 [Example 81, (8-Chlor-2-methylquinolin-4-yl)-(3,4-dichlorobenzyl)-amine] | ≤ 100 nM |
| Cc1cc(NCc2ccc(Cl)c(Cl)c2)c2cccc(F)c2n1 [Example 82, (3,4-Dichlorobenzyl)-(8-fluoro-2-methylquinolin-4-yl)-amine] | ≤ 1000 nM |
| Cc1cc(NCc2ccc(F)c(F)c2)c2cccc(C)c2n1 [Example 85, (3,4-Difluoro-benzyl)-(2,8-dimethyl-quinolin-4-yl)-amine] | ≤ 1000 nM |
| Cc1cc(NCc2ccc(Cl)c(Cl)c2)c2cccc(C)c2n1 [Example 87, (3,4-Dichlorobenzyl)-(2-methyl-8-methylquinolin-4-yl)-amine] | ≤ 100 nM |
| Cc1cc(NCc2ccc(F)cc2)c2ccccc2n1 [Example 90, (4-Fluorobenzyl)-(2-methylquinoline-4-yl)-amine] | ≤ 1000 nM |
| Cc1cc(NCc2ccc(Cl)c(Cl)c2)c2cccc(S(C)(=O)=O)c2n1 [Example 93, (3,4-Dichlorobenzyl)-(8-methanesulfonyl-2-methylquinolin-4-yl)-amine] | ≤ 1000 nM |
| CN(C)c1cc(NCc2ccc(Cl)c(Cl)c2)c2ccccc2n1 [Example 95, N*4*-(3,4-Dichlorobenzyl)-N*2*,N*2*-dimethylquinoline-2,4-diamine] | ≤ 100 nM |
| CN(C)c1cc(NCc2ccc(Cl)cc2Cl)c2ccccc2n1 [Example 96, N*4*-(2,4-Dichlorobenzyl)-N*2*,N*2*-dimethylquinoline-2,4-diamin] | ≤ 1000 nM |

molecular target: T2, Human GlyT1c (Homo sapiens, UniProt P48067); assay: Glycine uptake in recombinant hGlyT1 expressing cells; format: cell-based; conditions: hGlyT1c_5_CHO cells; [3H]-glycine uptake, 60-120 min
T2 construct: expressed in transfected cells; host or cells: CHO (hGlyT1c_5_CHO clone)
T2 sequence (P48067 1-706): T1 sequence (P48067 1-706)
Procedure, shortened: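 Recombinant hGlyT1c CHO cells were washed in HBSS with 5 mM L-alanine, then given inhibitor and [3H]-glycine. Uptake was counted continuously by solid-phase scintillation for up to 3 h, with nonspecific uptake defined by 10 μM Org24598. IC50 came from four-parameter logistic fits over the linear 60–120 min range.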

| IC50 | Structure (SMILES) |
| --- | --- |
| ≤ 1000 nM | COc1cccc2c(NCc3ccc(C(F)(F)F)c(Cl)c3)cc(C)nc12 [Example 80, (3-Chloro-4-trifluoromethylbenzyl)-(8-methoxy-2-methylquinolin-4-yl)-amine] |
| ≤ 1000 nM | CSc1cccc2c(NCc3ccc(Cl)cc3)cc(C)nc12 [Example 83, (4-Chlorobenzyl)-(2-methyl-8-methylsulfanylquinolin-4-yl)-amine] |
| ≤ 1000 nM | COc1cccc2c(NCc3ccc(Cl)cc3)cc(C)nc12 [Example 84, (4-Chlorobenzyl)-(2-methyl-8-methoxyquinolin-4-yl)amine] |
| ≤ 1000 nM | CSc1cccc2c(NCc3ccc(F)c(F)c3)cc(C)nc12 [Example 86, (3,4-Difluorobenzyl)-(2-methyl-8-methylsulfanylquinolin-4-yl)-amine] |
| ≤ 100 nM | CSc1cccc2c(NCc3ccc(Cl)c(Cl)c3)cc(C)nc12 [Example 88, (3,4-Dichlorobenzyl)-(2-methyl-8-methylsulfanylquinolin-4-yl)-amine] |
| ≤ 1000 nM | Cc1cc(NCc2ccc(Cl)c(Cl)c2)c2ccccc2n1 [Example 89, (3,4-Dichlorobenzyl)-(2-methylquinolin-4-yl)-amine] |
| ≤ 10000 nM | Cc1cc(NCc2cccc(Cl)c2Cl)c2ccccc2n1 [Example 91, (2,3-Dichloro-benzyl)-(2-methylquinolin-4-yl)-amine] |
| ≤ 1000 nM | Cc1cc(NCc2ccc(Cl)c(Cl)c2)c2cccc([S+](C)[O-])c2n1 (stereo not drawn) [Example 92, (3,4-Dichlorobenzyl)-(8-methanesulfinyl-2-methylquinolin-4-yl)-amine] |
| ≤ 100000 nM | CN(C)c1cc(NCc2ccccc2)c2ccccc2n1 [Example 94, N*4*-Benzyl-N*2*,N*2*-dimethylquinoline-2,4-diamine] |

Further lines, the molecule ahead of its results:

| Structure (SMILES) | IC50 |
| --- | --- |
| COc1cccc2c(NC(CNC(C)C)c3ccccc3)cc(C)nc12 (stereo not drawn) [Example 79, N*2*-Isopropyl-N*1*-(8-methoxy-2-methylquinolin-4-yl)-1-phenylethane-1,2-diamine] | ≤ 10000 nM |
| Cc1cc(NCc2ccc(Cl)c(Cl)c2)c2cccc(Cl)c2n1 [Example 81, (8-Chlor-2-methylquinolin-4-yl)-(3,4-dichlorobenzyl)-amine] | ≤ 1000 nM |
| Cc1cc(NCc2ccc(Cl)c(Cl)c2)c2cccc(F)c2n1 [Example 82, (3,4-Dichlorobenzyl)-(8-fluoro-2-methylquinolin-4-yl)-amine] | ≤ 1000 nM |
| Cc1cc(NCc2ccc(F)c(F)c2)c2cccc(C)c2n1 [Example 85, (3,4-Difluoro-benzyl)-(2,8-dimethyl-quinolin-4-yl)-amine] | ≤ 1000 nM |
| Cc1cc(NCc2ccc(Cl)c(Cl)c2)c2cccc(C)c2n1 [Example 87, (3,4-Dichlorobenzyl)-(2-methyl-8-methylquinolin-4-yl)-amine] | ≤ 100 nM |
| Cc1cc(NCc2ccc(F)cc2)c2ccccc2n1 [Example 90, (4-Fluorobenzyl)-(2-methylquinoline-4-yl)-amine] | ≤ 1000 nM |
| Cc1cc(NCc2ccc(Cl)c(Cl)c2)c2cccc(S(C)(=O)=O)c2n1 [Example 93, (3,4-Dichlorobenzyl)-(8-methanesulfonyl-2-methylquinolin-4-yl)-amine] | ≤ 10000 nM |
| CN(C)c1cc(NCc2ccc(Cl)c(Cl)c2)c2ccccc2n1 [Example 95, N*4*-(3,4-Dichlorobenzyl)-N*2*,N*2*-dimethylquinoline-2,4-diamine] | ≤ 100 nM |
| CN(C)c1cc(NCc2ccc(Cl)cc2Cl)c2ccccc2n1 [Example 96, N*4*-(2,4-Dichlorobenzyl)-N*2*,N*2*-dimethylquinoline-2,4-diamin] | ≤ 10000 nM |
